How the values were obtained:
Assay in all cases: relative viability (nuclei count vs DMSO), 5 days (fraction); higher = more cells survive
Carfilzomib + Crizotinib = compound: CC(C)C[C@H](NC(=O)[C@H](CCc1ccccc1)NC(=O)CN1CCOCC1)C(=O)N[C@@H](Cc1ccccc1)C(=O)N[C@@H](CC(C)C)C(=O)[C@@]1(C)CO1 [Carfilzomib] + C[C@@H](Oc1cc(-c2cnn(C3CCNCC3)c2)cnc1N)c1c(Cl)ccc(F)c1Cl [Crizotinib] (partner 1 µM)
How it was run: (§1)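 Cells from lung cancer lines were seeded into 1536-well plates and, one day later, dosed by pin tool. Treatments were either a single drug or a fixed dose of an anchor drug with five library-drug doses (not always all listed) in √10 steps. After 5 days, nuclei were stained in a one-step fixation (final 0.05% Triton X-100, 1% formaldehyde, 1 ug/ml Hoechst) and counted on 4× images, and relative viability is the treated-to-vehicle nuclei ratio, as the median of duplicate plates.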

Crizotinib + Bortezomib = compound: C[C@@H](Oc1cc(-c2cnn(C3CCNCC3)c2)cnc1N)c1c(Cl)ccc(F)c1Cl [Crizotinib] + CC(C)C[C@H](NC(=O)[C@H](Cc1ccccc1)NC(=O)c1cnccn1)B(O)O [Bortezomib] (partner 0.002 µM)
How it was run: as §1

Crizotinib + Tozasertib = compound: C[C@@H](Oc1cc(-c2cnn(C3CCNCC3)c2)cnc1N)c1c(Cl)ccc(F)c1Cl [Crizotinib] + Cc1cc(Nc2cc(N3CCN(C)CC3)nc(Sc3ccc(NC(=O)C4CC4)cc3)n2)n[nH]1 [Tozasertib] (partner 0.1 µM)
How it was run: as §1

Olaparib + Lapatinib = compound: O=C(c1cc(Cc2n[nH]c(=O)c3ccccc23)ccc1F)N1CCN(C(=O)C2CC2)CC1 [Olaparib] + CS(=O)(=O)CCNCc1ccc(-c2ccc3ncnc(Nc4ccc(OCc5cccc(F)c5)c(Cl)c4)c3c2)o1 [Lapatinib] (partner 2 µM)
How it was run: as §1

Cell Line	relative viability (Carfilzomib + Crizotinib; first compound 0.001 µM)	relative viability (Carfilzomib + Crizotinib; first compound 0.003162 µM)	relative viability (Carfilzomib + Crizotinib; first compound 0.01 µM)	relative viability (Carfilzomib + Crizotinib; first compound 0.03162 µM)	relative viability (Carfilzomib + Crizotinib; first compound 0.1 µM)	relative viability (Crizotinib + Bortezomib; first compound 0.01 µM)	relative viability (Crizotinib + Bortezomib; first compound 0.03162 µM)	relative viability (Crizotinib + Bortezomib; first compound 0.1 µM)	relative viability (Crizotinib + Bortezomib; first compound 0.3162 µM)	relative viability (Crizotinib + Bortezomib; first compound 1 µM)	relative viability (Crizotinib + Tozasertib; first compound 0.01 µM)	relative viability (Crizotinib + Tozasertib; first compound 0.03162 µM)	relative viability (Crizotinib + Tozasertib; first compound 0.1 µM)	relative viability (Crizotinib + Tozasertib; first compound 0.3162 µM)	relative viability (Crizotinib + Tozasertib; first compound 1 µM)	relative viability (Olaparib + Lapatinib; first compound 0.08 µM)	relative viability (Olaparib + Lapatinib; first compound 0.253 µM)	relative viability (Olaparib + Lapatinib; first compound 2.53 µM)	relative viability (Olaparib + Lapatinib; first compound 8 µM)
LU99A	0.585	0.667	0.584	0.291	0.16	1.1	1.14	1.14	1.07	1.04	0.231	0.27	0.256	0.222	0.241	1.01	0.839	0.643	0.49
LXF-289	0.797	0.857	0.855	0.148	0.0565	0.917	0.972	1.01	0.85	0.967	0.221	0.201	0.18	0.157	0.197	0.929	0.871	0.97	0.973
NCI-H23	0.637	0.612	0.587	0.153	0.134	1.02	1.09	1.03	–	0.979	0.414	0.36	0.307	–	0.363	1.32	0.791	0.679	0.485
NCI-H322M	0.935	0.864	0.938	0.795	0.252	1.19	1.23	1.24	1.29	1.38	0.482	0.515	0.48	0.49	0.459	0.576	0.597	0.599	0.491
NCI-H460	0.921	1.01	0.852	0.0558	0.0115	1.08	1.07	1.01	1.2	1.1	0.368	0.441	0.474	0.248	0.455	1.28	0.874	0.679	0.172
NCI-H520	0.759	0.883	0.665	0.103	0.106	0.492	0.5	0.586	0.522	0.331	0.47	0.469	0.448	0.45	0.458	1.08	0.795	0.725	0.525
NCI-H596	0.916	1.28	1	0.77	0.334	0.894	1.18	1.1	1.45	0.947	0.887	0.804	0.924	0.861	–	1.09	0.988	1.06	0.73
NCI-H647	0.847	1.04	0.713	0.0319	0.0277	0.638	1.01	0.827	0.94	0.943	0.267	0.305	0.248	0.26	0.204	1.43	0.984	1.13	0.59
NCI-H650	0.677	0.996	0.698	0.577	0.132	0.769	0.655	0.806	0.613	0.671	0.772	0.726	0.721	0.616	0.809	1.05	0.834	0.903	0.742
NCI-H661	0.861	0.971	1.01	0.985	0.867	0.759	0.768	0.72	0.777	0.817	0.336	0.337	0.337	0.369	0.355	0.638	0.443	0.426	0.543
NCI-H727	0.84	0.682	0.871	0.223	0.141	0.569	0.806	1.01	0.962	0.988	–	0.605	0.612	–	0.634	0.945	0.778	0.651	0.465
NCI-H838	0.876	0.972	0.923	0.577	0.122	0.806	0.695	0.968	0.863	–	0.243	0.296	0.246	0.266	0.269	0.94	0.857	0.887	1.09
NCI-H1355	1.05	1.05	1.03	0.695	0.139	1.23	1.21	1.22	1.1	1.24	0.568	0.545	0.555	0.515	0.598	1.13	0.863	1	0.944
NCI-H1437	0.915	1.04	0.898	0.835	0.184	0.48	0.553	0.558	0.434	0.494	0.379	0.409	0.406	0.384	0.374	0.801	0.652	0.717	0.599
NCI-H1650	–	0.839	0.642	0.114	0.139	0.188	0.173	0.205	0.159	0.2	0.407	0.35	0.433	0.356	0.415	1.04	0.756	0.796	0.749
NCI-H1651	0.874	0.914	0.782	0.383	0.122	0.93	0.979	0.939	0.815	0.924	0.697	0.7	0.701	0.723	0.621	0.712	0.752	0.628	0.27
NCI-H1666	1.07	1.14	1.08	0.409	0.211	0.791	0.981	0.829	0.796	0.912	0.547	0.586	0.665	0.648	0.539	0.845	0.633	0.577	0.532
NCI-H1734	0.658	0.836	0.616	0.435	0.111	1.01	0.926	0.87	–	1.07	0.247	0.27	0.253	–	0.257	1.1	0.974	0.933	0.749
NCI-H1755	0.817	0.904	0.894	0.498	0.189	–	0.964	0.923	0.87	0.991	0.614	0.563	0.617	0.467	0.549	1.15	0.916	1.08	0.967
NCI-H1915	0.879	0.927	0.887	0.434	0.069	0.98	0.921	1.06	–	0.963	0.49	0.463	0.439	–	0.382	1.05	0.813	0.778	0.76
NCI-H1975	0.944	0.951	0.536	0.116	0.131	0.317	0.362	0.315	0.373	0.404	0.644	0.705	0.782	0.705	0.746	0.999	0.844	0.808	0.786
NCI-H1993	0.871	0.97	1.12	0.807	0.473	0.937	1.05	0.833	0.899	0.76	0.558	0.538	0.552	0.588	0.588	0.932	0.779	0.855	0.77
NCI-H2009	1.07	1.14	1.09	0.37	0.0428	0.896	1.04	1.09	0.837	0.96	0.746	0.712	0.731	0.678	0.665	0.934	0.975	0.884	0.606
NCI-H2023	0.666	0.64	0.733	0.375	0.0656	0.813	0.964	0.88	0.647	0.806	0.356	0.284	0.293	0.241	0.271	1.08	0.755	0.763	0.691
NCI-H2085	0.83	0.769	0.662	0.368	0.225	0.995	1.22	1.07	1.02	1.02	0.763	0.801	0.775	–	0.884	0.968	0.711	0.737	0.618
NCI-H2087	0.876	1.03	0.827	0.0787	0.091	0.773	1.12	0.952	0.685	0.808	0.254	0.213	0.254	–	0.274	1.08	0.997	0.892	0.632
NCI-H2126	0.98	1.07	0.989	1.01	0.707	1.04	1.13	1.2	–	1.16	0.721	0.813	0.819	0.8	0.808	0.845	0.766	0.759	0.784
NCI-H2228	0.49	0.389	0.666	0.149	0.17	0.84	0.874	0.833	0.647	0.346	0.237	0.229	0.172	0.209	0.182	1.28	0.879	0.835	0.765

Reference: the supplement of paper PMC10307832
